Columns and labels:
Test in all cases: Kinase profiling
Format in all cases: biochemical
ACK1 = molecular target: T1, ACK1 (Homo sapiens, UniProt Q07912)
T1 construct: purchased ProQinase (Freiburg, Germany)
Protocol: (§1) The analysis was performed by ProQinase (Freiburg, Germany).

CDK1/CycE1 = molecular target: T2, CDK1/CycE1 (Homo sapiens, UniProt P06493)
T2 construct: purchased ProQinase (Freiburg, Germany)
Protocol: as §1

EPHA7 = molecular target: T3, EPHA7 (Homo sapiens, UniProt Q15375)
T3 construct: purchased ProQinase (Freiburg, Germany)
T3 sequence (Q15375 28-998): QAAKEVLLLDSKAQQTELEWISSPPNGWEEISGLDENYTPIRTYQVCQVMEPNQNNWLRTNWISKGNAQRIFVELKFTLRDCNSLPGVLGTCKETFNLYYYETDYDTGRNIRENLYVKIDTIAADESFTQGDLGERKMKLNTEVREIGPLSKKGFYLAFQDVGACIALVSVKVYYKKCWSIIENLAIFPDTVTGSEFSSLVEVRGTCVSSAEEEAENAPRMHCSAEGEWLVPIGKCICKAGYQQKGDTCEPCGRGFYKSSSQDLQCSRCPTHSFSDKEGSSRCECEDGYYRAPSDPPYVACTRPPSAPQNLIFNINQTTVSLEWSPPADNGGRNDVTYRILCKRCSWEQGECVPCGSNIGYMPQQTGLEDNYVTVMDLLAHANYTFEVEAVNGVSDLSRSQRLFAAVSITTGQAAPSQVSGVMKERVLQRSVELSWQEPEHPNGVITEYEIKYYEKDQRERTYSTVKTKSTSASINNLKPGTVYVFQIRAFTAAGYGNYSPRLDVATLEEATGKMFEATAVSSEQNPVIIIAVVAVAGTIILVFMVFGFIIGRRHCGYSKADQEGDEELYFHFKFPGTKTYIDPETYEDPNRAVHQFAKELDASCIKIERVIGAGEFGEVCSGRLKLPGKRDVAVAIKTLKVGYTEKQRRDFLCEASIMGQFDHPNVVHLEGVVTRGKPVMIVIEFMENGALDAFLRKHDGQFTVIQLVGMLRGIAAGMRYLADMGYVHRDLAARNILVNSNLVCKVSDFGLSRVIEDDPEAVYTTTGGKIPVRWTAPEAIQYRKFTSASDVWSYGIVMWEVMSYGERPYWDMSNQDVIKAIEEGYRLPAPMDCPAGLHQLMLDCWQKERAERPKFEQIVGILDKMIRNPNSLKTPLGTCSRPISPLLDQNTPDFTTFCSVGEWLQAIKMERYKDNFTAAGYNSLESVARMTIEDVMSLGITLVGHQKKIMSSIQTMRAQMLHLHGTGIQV
Protocol: as §1

GRK2 = molecular target: T4, GRK2 (Homo sapiens, UniProt P25098)
T4 construct: purchased ProQinase (Freiburg, Germany)
T4 sequence (P25098 1-689): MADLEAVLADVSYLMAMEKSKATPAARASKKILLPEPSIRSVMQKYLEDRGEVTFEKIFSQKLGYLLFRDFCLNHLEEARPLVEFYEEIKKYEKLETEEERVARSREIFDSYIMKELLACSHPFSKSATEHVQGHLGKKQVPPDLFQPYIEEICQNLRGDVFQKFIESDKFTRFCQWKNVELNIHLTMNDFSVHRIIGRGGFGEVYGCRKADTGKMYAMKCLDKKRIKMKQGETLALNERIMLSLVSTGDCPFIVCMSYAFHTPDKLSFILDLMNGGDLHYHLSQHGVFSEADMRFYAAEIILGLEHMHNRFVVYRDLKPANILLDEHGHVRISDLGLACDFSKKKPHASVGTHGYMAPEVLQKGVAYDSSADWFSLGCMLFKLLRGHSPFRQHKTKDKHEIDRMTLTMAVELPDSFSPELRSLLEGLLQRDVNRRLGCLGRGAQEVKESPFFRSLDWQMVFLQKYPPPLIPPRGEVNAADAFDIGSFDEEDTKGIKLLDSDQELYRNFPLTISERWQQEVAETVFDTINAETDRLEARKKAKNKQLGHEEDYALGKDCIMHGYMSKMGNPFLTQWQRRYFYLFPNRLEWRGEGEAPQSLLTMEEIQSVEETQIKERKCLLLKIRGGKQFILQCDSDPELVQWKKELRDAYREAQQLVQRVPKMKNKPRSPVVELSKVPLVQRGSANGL
Protocol: as §1

HRI = molecular target: T5, HRI (Homo sapiens, UniProt Q9BQI3)
T5 construct: purchased ProQinase (Freiburg, Germany)
Protocol: as §1

IRAK1 = molecular target: T6, IRAK1 (Homo sapiens, UniProt P51617)
T6 construct: purchased ProQinase (Freiburg, Germany)
T6 sequence (P51617 whole entry): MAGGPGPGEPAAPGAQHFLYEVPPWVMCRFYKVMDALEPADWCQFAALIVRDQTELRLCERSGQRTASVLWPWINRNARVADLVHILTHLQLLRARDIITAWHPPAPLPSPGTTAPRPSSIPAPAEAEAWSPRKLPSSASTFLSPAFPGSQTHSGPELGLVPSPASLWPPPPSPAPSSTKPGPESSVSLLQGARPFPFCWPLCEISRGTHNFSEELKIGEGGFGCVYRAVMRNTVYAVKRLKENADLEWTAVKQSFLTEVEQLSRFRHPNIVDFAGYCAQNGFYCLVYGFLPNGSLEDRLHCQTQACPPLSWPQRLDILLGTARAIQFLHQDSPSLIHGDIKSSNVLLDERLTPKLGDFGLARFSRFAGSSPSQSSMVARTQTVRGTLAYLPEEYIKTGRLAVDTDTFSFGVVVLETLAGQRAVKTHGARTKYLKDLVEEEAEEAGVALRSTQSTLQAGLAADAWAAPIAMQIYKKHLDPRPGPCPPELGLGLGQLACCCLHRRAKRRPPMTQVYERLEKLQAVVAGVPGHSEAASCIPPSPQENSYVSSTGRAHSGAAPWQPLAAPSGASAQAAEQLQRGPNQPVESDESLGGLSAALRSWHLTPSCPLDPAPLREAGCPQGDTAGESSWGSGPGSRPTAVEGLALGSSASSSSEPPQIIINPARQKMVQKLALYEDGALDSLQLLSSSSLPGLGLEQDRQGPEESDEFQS
Protocol: as §1

KIT = molecular target: T7, KIT (Homo sapiens, UniProt P10721)
T7 construct: purchased ProQinase (Freiburg, Germany)
T7 sequence (P10721 26-976): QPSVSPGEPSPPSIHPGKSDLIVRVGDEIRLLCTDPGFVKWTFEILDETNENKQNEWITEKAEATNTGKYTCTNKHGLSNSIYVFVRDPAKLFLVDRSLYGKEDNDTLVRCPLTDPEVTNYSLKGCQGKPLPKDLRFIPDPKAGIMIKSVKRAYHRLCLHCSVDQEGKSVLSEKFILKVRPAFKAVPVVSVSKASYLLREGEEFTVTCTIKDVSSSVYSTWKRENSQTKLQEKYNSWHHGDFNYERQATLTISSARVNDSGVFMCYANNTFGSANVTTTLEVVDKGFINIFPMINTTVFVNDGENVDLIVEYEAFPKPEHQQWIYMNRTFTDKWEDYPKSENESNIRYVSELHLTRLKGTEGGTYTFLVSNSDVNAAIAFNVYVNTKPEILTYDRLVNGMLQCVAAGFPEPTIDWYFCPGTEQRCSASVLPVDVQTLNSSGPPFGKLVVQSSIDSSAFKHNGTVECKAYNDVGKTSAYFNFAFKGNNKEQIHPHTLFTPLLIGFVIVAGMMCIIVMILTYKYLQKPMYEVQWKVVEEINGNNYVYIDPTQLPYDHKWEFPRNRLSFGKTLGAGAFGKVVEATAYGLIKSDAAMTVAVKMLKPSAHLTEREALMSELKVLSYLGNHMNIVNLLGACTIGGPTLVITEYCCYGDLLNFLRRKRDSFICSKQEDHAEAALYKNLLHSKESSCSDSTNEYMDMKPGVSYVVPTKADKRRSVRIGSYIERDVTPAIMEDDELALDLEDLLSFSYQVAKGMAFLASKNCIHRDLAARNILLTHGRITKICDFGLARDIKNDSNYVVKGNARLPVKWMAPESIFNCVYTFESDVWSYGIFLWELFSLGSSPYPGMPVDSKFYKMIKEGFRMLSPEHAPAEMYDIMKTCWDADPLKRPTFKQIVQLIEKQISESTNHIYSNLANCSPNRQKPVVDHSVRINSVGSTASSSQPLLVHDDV
Protocol: as §1

MEK1 = molecular target: T8, MEK1 (Homo sapiens, UniProt Q02750)
T8 construct: purchased ProQinase (Freiburg, Germany)
T8 sequence (Q02750 whole entry): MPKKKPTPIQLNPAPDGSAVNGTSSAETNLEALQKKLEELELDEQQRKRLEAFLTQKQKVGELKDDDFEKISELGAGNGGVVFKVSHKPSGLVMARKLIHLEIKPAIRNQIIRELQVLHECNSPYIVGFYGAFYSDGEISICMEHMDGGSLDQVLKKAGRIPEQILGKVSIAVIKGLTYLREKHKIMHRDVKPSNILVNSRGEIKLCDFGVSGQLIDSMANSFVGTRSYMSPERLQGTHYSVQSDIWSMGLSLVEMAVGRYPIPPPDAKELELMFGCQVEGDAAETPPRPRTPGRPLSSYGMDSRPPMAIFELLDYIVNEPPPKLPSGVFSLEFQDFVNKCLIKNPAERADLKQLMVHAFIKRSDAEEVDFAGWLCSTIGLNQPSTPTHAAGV
Protocol: as §1

MYLK3 = molecular target: T9, MYLK3 (Homo sapiens, UniProt Q32MK0)
T9 construct: purchased ProQinase (Freiburg, Germany)
T9 sequence (Q32MK0 1-819): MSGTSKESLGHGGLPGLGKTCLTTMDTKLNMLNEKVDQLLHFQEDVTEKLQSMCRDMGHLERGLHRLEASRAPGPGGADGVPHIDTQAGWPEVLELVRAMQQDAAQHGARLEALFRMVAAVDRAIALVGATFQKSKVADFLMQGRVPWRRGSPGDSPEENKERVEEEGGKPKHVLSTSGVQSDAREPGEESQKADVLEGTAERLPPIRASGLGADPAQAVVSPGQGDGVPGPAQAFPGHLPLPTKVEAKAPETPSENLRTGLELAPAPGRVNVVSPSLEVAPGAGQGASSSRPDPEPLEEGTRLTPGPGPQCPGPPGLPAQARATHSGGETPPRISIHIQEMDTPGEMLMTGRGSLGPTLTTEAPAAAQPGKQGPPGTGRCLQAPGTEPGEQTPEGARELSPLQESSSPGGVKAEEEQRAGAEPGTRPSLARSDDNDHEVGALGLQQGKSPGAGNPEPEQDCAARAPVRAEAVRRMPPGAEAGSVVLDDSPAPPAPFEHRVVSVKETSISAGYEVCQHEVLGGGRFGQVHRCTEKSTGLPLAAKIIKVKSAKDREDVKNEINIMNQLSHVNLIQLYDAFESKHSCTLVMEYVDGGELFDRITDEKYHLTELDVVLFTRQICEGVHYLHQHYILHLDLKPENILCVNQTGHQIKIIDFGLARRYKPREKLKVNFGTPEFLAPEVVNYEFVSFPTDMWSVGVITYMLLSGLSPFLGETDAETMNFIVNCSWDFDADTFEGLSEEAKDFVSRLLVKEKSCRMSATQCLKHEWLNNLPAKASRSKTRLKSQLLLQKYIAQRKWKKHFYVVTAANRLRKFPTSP
Protocol: as §1

PIM2 = molecular target: T10, PIM2 (Homo sapiens, UniProt Q9P1W9)
T10 construct: purchased ProQinase (Freiburg, Germany)
Protocol: as §1

PKMzeta = molecular target: T11, PKMzeta (Homo sapiens, UniProt Q05513)
T11 construct: PKMzeta; purchased ProQinase (Freiburg, Germany)
T11 sequence (Q05513 184-592 limits assumed): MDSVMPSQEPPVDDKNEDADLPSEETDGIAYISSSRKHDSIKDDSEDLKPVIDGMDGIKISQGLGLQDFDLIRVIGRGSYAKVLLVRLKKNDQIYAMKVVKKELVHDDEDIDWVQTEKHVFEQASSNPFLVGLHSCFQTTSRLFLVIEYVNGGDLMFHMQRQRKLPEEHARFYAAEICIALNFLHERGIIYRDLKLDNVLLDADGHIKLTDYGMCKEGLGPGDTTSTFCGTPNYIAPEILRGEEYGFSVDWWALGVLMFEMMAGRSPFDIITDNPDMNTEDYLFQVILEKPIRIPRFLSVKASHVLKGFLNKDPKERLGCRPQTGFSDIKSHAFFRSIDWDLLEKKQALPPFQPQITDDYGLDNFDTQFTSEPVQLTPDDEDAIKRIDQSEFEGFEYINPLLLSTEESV
Protocol: as §1

TLK2 = molecular target: T12, TLK2 (Homo sapiens, UniProt Q86UE8)
T12 construct: purchased ProQinase (Freiburg, Germany)
Protocol: as §1

T2 sequence (P06493 whole entry): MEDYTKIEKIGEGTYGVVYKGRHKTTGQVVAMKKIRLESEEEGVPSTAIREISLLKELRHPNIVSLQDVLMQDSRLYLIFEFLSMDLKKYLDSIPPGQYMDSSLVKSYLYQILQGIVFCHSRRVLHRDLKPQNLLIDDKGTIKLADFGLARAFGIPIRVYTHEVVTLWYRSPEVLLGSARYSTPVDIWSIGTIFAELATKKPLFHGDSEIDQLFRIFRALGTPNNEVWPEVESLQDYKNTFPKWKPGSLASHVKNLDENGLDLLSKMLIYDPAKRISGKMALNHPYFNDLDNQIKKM
T2 sequence (P24864 whole entry partner): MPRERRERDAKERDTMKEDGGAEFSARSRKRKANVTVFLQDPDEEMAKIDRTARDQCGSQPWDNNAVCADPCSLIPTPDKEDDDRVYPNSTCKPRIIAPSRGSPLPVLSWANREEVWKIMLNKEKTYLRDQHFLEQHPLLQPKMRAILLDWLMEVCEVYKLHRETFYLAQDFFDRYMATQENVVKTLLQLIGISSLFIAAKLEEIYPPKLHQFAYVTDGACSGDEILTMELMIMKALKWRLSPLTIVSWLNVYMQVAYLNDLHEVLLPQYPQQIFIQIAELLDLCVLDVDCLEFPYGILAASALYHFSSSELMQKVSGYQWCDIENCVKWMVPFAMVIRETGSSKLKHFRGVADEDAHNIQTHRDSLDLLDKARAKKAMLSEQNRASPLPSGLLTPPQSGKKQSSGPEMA
T1 sequence (Q07912 whole entry): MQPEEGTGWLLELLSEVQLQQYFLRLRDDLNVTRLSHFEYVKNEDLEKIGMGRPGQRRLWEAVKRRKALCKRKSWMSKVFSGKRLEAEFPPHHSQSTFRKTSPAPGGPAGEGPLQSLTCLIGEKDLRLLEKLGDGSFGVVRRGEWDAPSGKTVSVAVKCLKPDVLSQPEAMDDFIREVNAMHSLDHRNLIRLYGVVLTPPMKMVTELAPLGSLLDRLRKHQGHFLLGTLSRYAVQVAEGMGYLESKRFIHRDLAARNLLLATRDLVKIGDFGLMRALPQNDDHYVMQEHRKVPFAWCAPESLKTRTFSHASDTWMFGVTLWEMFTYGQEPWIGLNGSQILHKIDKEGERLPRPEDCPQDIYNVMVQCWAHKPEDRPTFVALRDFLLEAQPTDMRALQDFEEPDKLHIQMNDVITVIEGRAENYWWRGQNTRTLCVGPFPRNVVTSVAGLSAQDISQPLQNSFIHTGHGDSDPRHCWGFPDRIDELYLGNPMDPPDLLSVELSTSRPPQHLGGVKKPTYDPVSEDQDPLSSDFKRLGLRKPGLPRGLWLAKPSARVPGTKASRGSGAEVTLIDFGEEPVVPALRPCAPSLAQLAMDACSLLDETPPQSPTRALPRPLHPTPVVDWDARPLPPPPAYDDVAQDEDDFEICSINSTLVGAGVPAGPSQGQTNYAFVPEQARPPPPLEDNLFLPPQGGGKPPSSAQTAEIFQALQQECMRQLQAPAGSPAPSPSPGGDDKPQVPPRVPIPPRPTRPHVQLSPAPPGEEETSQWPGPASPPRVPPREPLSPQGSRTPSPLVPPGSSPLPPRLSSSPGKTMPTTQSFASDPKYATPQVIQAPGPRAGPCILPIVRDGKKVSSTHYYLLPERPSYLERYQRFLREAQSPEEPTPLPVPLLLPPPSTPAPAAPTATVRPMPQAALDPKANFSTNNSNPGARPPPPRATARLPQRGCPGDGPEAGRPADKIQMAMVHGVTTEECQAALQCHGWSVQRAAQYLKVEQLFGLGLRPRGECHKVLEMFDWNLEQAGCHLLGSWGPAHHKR

Row | SMILES | Residual activity (ACK1; 1.0E-05 M) | Residual activity (ACK1; 1.0E-06 M) | Residual activity (CDK1/CycE1; 1.0E-05 M) | Residual activity (CDK1/CycE1; 1.0E-06 M) | Residual activity (EPHA7; 1.0E-05 M) | Residual activity (EPHA7; 1.0E-06 M) | Residual activity (GRK2; 1.0E-05 M) | Residual activity (GRK2; 1.0E-06 M) | Residual activity (HRI; 1.0E-05 M) | Residual activity (HRI; 1.0E-06 M) | Residual activity (IRAK1; 1.0E-05 M) | Residual activity (IRAK1; 1.0E-06 M) | Residual activity (KIT; 1.0E-05 M) | Residual activity (KIT; 1.0E-06 M) | Residual activity (MEK1; 1.0E-05 M) | Residual activity (MEK1; 1.0E-06 M) | Residual activity (MYLK3; 1.0E-05 M) | Residual activity (MYLK3; 1.0E-06 M) | Residual activity (PIM2; 1.0E-05 M) | Residual activity (PIM2; 1.0E-06 M) | further results
1 | O=C(Cc1ccccc1)Nc1ccc(F)c(Nc2ccc3c(c2)CCCCC3=O)c1 [Compound 100] | 92 % of control | 112 % of control | 100 % of control | 102 % of control | 101 % of control | 103 % of control | 97 % of control | 97 % of control | 123 % of control | 120 % of control | 106 % of control | 107 % of control | 78 % of control | 87 % of control | 114 % of control | 112 % of control | 70 % of control | 97 % of control | 92 % of control | 109 % of control | Residual activity (PKMzeta; 1.0E-05 M): 98 % of control; Residual activity (PKMzeta; 1.0E-06 M): 105 % of control; Residual activity (TLK2; 1.0E-05 M): 162 % of control; Residual activity (TLK2; 1.0E-06 M): 135 % of control
2 | O=C(Nc1ccc(F)c(Nc2ccc3c(c2)CCCCC3=O)c1)c1cccc(F)c1 [Compound 109] | 89 % of control | 96 % of control | 98 % of control | 96 % of control | 96 % of control | 85 % of control | 88 % of control | 84 % of control | 129 % of control | 98 % of control | 104 % of control | 100 % of control | 78 % of control | 88 % of control | 109 % of control | 109 % of control | 80 % of control | 103 % of control | 86 % of control | 100 % of control | Residual activity (PKMzeta; 1.0E-05 M): 88 % of control; Residual activity (PKMzeta; 1.0E-06 M): 103 % of control; Residual activity (TLK2; 1.0E-05 M): 207 % of control; Residual activity (TLK2; 1.0E-06 M): 120 % of control
